Results reported in patent US8975264B2, “Compound acting as a cannabinoid receptor-1 inhibitor” (Amorepacific Corporation, priority 2010, dated 2015).

What follows are compounds tested against human CB1 (cannabinoid receptor 1) (Homo sapiens, UniProt P21554) (assay: CB1 receptor inhibition effect: calcium ion influx assay (Fluo-4 NW) in Chem-1 cells after 1 μM R-(+)-WIN55212-2). Settings: calcium ion influx in Chem-1 cells expressing human CB1, 1 μM R-(+)-WIN55212-2.
Assay type: cell-based
Method in brief: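 Chem-1 cells stably expressing human CB1 were exposed to compound (0.5% DMSO) for 10 minutes in HBSS/HEPES/probenecid, then stimulated with 1 μM R-(+)-WIN55212-2. Fluo-4 calcium flux was recorded for 80 s. Percent inhibition was calculated from max−min RFU relative to agonist-only and blank wells.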

human CB1 (cannabinoid receptor 1), sequence (P21554 whole entry): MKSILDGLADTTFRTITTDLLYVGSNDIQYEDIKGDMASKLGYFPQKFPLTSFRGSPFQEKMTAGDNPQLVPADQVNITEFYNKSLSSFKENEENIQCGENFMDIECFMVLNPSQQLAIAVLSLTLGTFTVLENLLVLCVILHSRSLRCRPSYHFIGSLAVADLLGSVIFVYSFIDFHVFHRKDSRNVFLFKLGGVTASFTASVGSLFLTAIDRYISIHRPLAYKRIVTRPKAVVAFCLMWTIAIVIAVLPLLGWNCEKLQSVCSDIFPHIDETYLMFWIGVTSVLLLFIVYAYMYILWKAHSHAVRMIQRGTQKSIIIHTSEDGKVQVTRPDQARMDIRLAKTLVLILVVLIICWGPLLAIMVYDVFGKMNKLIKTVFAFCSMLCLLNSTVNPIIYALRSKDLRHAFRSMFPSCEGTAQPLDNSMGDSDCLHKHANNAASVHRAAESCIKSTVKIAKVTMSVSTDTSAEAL

Structure (SMILES) | IC50
COc1ccc(-c2c(C)nn3c(-c4ccc(F)c(F)c4)cc(N4CCC[C@H]4CO)nc23)cc1F [Example 187] | 390 nM
CCCc1ccc(-c2c(C)nn3c(-c4ccc(F)cc4)cc(N4CCC[C@H]4CO)nc23)cc1 [Example 72] | 350 nM
COc1ccc(-c2c(C)nn3c(-c4ccc(F)c(Cl)c4)cc(N4CCC[C@H]4CO)nc23)cc1 [Example 46] | 190 nM
Cc1nn2c(-c3ccccc3F)cc(N3CCC[C@H]3CO)nc2c1-c1ccc2c(c1)OCO2 [Example 57] | 240 nM
CCOc1ccc(-c2c(C)nn3c(-c4cccc(OC)c4)cc(N4CCC[C@H]4CO)nc23)cc1 [Example 51] | 250 nM
COc1ccc(-c2c(C)nn3c(-c4cccc(OC)c4)cc(N4CCC[C@H]4CO)nc23)cc1 [Example 41] | 260 nM
Cc1ccc(-c2c(C)nn3c(-c4cccc(Cl)c4)cc(N4CCC[C@H]4CO)nc23)cc1 [Example 170] | 160 nM
Cc1ccc(-c2c(C)nn3c(-c4ccc(F)cc4F)cc(N4CCC[C@H]4CO)nc23)cc1 [Example 34] | 220 nM

Now those with a lower IC50, led by results:

IC50 | Structure (SMILES)
100 nM | CCOc1ccc(-c2c(C)nn3c(-c4ccc(F)cc4)cc(N4CCC[C@H]4CO)nc23)cc1 [Example 65]
82 nM | Cc1ccc(-c2c(C)nn3c(-c4ccccc4F)cc(N4CCC[C@H]4CO)nc23)cc1 [Example 33]
16 nM | CCOCc1nn2c(-c3cccc(C(F)(F)F)c3)cc(N(C)CCO)nc2c1-c1ccc(OC)cc1 [Example 247]
140 nM | Cc1nn2c(-c3cccc(C(F)(F)F)c3)cc(N3CCC[C@H]3CO)nc2c1-c1ccc(F)cc1 [Example 139]
49 nM | Cc1nn2c(-c3cccc(F)c3)cc(N3CCC[C@H]3CO)nc2c1-c1ccc2c(c1)OCO2 [Example 113]
100 nM | CCOCc1nn2c(-c3cccc(OC)c3)cc(N(C)CCO)nc2c1-c1ccc2c(c1)OCO2 [Example 252]
50 nM | COCc1nn2c(-c3cccc(OC)c3)cc(N3CCC[C@H]3CO)nc2c1-c1ccc(OC)cc1 [Example 226]
